In EP4759810A1, “PROTAC TARGETING BCL-XL PROTEIN AND USE THEREOF” (BEIJING SUNCELL BIO-MEDICAL CO., LTD., priority 2023, dated 2025):
Read-outs that look alike come from different tables or passages of the source.

Assays:
platelets = test: In vivo platelet toxicity test in mice
Experimental: The in vivo platelet toxicity test was performed by using 5-6 week old female C57BL/6J mice. The C57BL/6J mice were purchased from Beijing Vital River Laboratory Animal Technology Co., Ltd. and housed under specific pathogen-free (SPF) conditions, with a 12-hour light/12-hour dark cycle, and free access to food and water. […] Different doses of the molecules to be tested (e.g., 0.1, 0.5, 2.5 mg/kg or 2, 5, 20 mg/kg) were prepared in advance with the aforementioned vehicle, and administered to mice via intraperitoneal injection at a volume of 200 µL for each mouse. After administration was completed, approximately 50 µL of blood was collected from each mouse at different time points via the intra-canthus sampling method into EDTA anticoagulant tubes (RAM Scientific), then a routine analysis of blood was performed by using a hematology analyzer, and the platelets was counted.

Molt-4 cells = test: Molt-4 cell killing activity test (CCK-8); format: cell-based; conditions: for EC50: Homo sapiens
How it was run: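 Molt-4 cells in RPMI-1640 with 10% FBS were exposed to compounds at 0.001–3 µM final, triplicate wells, for three days at 37°C. Viability was read by CCK-8 absorbance at 450 nm after 0.5–2 h, expressed relative to blank control.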

[1] = Metabolic stability assay in liver microsomes (human); format: in vitro ADME
How it was run: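 Human or mouse liver microsomes at 0.5 mg/mL with 1 µM compound at 37 °C, plus or minus NADPH; samples at 0–60 min quenched in cold acetonitrile with internal standards, analysed by LC-MS/MS. Half-life and intrinsic clearance from linear fit of ln % remaining versus time.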

BJ cells = test: Senescent cell killing activity test, BJ cell model (CCK-8); format: cell-based, human; conditions: Figures 3M-3O
Experimental: To avoid replication of the induced senescent cells, low-passage proliferating HEF cells (<10 passages), MRC5 cells (<6 passages), and BJ cells (<10 passages) were used as normal controls. For chemical drug induced senescence, HEF cells were treated with 10 µM etoposide (Selleck, S1225) for 36-48 hours, MRC5 cells were treated with 5 µM bleomycin (Selleck, S1225) for 72 hours, and BJ cells were treated with 10 µg/mL bleomycin for 72 hours. Three days after the treatment, the cells were subcultured in fresh culture medium at a 1:3 ratio for 72 hours before further analysis and use.
Non-senescent and induced-senescent HEF cells, non-senescent and induced-senescent MRC5 cells, and non-senescent and induced-senescent BJ cells were respectively digested with trypsin, and centrifuged at 1000 rpm for 5 minutes. Then, the supernatant was removed, and the cells were resuspended in fresh DMEM culture medium containing 10% fetal bovine serum for counting. The cell density was adjusted so that the non-senescent cell density was 4000 cells/100 µL and the senescent cell density was 7000 cells/100 µL. 100 µL of the cell suspension was added to each well of a 96-well transparent cell culture plate. It was noted that the edge wells of the 96-well plate were not used as testing wells, and 300 µL of PBS alone was added to these wells to reduce evaporation of the culture medium. The 96-well plates with the well-plated cells were placed back in a 37°C incubator for overnight culture until the cells adhered. On the next day, the small molecule compounds to be tested were prepared and added after the cells had adhered.
A series of small molecule concentration gradients (0.01, 0.03, 0.1, 0.3, 1, 3, 10, and 25 µM) were pre-set, and a series of 2× drug dilutions for the above concentrations were prepared in DMEM culture medium containing 10% fetal bovine serum. 100 µL of the above DMEM culture medium containing the gradient concentrations of the drug was added to each well of the 96-well plate that had been well-plated with cells, so that the final drug concentration in each well was the pre-set series of concentrations. Three replicate wells were used for each test drug concentration. The 96-well plates were placed back in a 37°C incubator, and cell viability was measured after three days.
Three days after adding the drug, the plates were taken out, and the supernatant was discarded. 100 µL of pre-prepared CCK-8 working solution was added to each well. The CCK-8 working solution was obtained through diluting a CCK-8 stock solution (C0041, Beyotime) with a serum-free DMEM culture medium by 10-fold volumn. The 96-well plates containing the CCK-8 working solution were placed back in the 37°C incubator and incubated for 0.5-2 hours. The plates were then taken out, and the absorbance value (OD value) of each well was measured at a wavelength of 450 nm. The cell viability in each experimental group was calculated according to the following formula: Relative cell viability (%) = (Blank control group - Experimental group) / Blank control group × 100%.

[2] = 72 h, Molt-4 cells, three days, CCK-8, read-out: EC50 (Molt-4)
[3] = Bcl-xL-positive Molt-4 cells, read-out: cellular activity / killing activity (Molt-4 cells)
[4] = human liver microsomes 0.5 mg/mL, 1 µM compound, 37°C

Structure (SMILES)	platelet number (platelets; intraperitoneal, three tested dose groups 0.1, 0.5, and 2.5 mg/kg, Figure 5A)	killing Molt-4 cells at different concentrations (Figure 1), in words (Molt-4 cells; Figure 1, 0.001-3 µM, comparison with control molecules)	EC50 (Molt-4 cells; [2]) [nM]	EC50 (Molt-4 cells; [3]) [nM]	Clint [1, 4] [µL/min/mg protein]	half-life at 1 µM [1, 4] [h]	microsomal CLint at 1 µM ([1]; human liver microsomes, read-out: clearance rate (metabolic clearance rate)) [µL/min/mg]	platelet number in peripheral blood, in words (platelets; intraperitoneal, 5 mg/kg, Figure 5B)	platelet number at the highest dose (platelets; intraperitoneal, 20 mg/kg, decrease lower than A-1331852 at 2 mg/kg, Figure 5C)	platelet toxicity compared to A-1331852 at equivalent doses (platelets; intraperitoneal, 2, 5, and 20 mg/kg, Figure 5C)	killing effects for senescent cells (BJ cells; bleomycin-induced senescent skin-derived BJ cell model)	killing effect for the normal early-passage BJ cells (BJ cells; normal BJ cells)
O=C1CCC(N2C(=O)c3cccc(NCCN4CCC(CN5CCN(CC#Cc6ccc(OCCCc7ccc(N8CCc9cccc(C(=O)Nc%10nc%11ccccc%11s%10)c9C8)nc7C(=O)O)c(F)c6)CC5)CC4)c3C2=O)C(=O)N1 (centres unmarked) [APQ2]	no significant decrease in platelet number	comparable to A-1331852	< 10	< 10	2.77	8.34	2.77	–	–	–	–	–
O=C1CCN(c2ccc(N3CCC(CN4CCN(CC#Cc5ccc(OCCCc6ccc(N7CCc8cccc(C(=O)Nc9nc%10ccccc%10s9)c8C7)nc6C(=O)O)c(F)c5)CC4)CC3)cc2)C(=O)N1 [APQ10]	–	–	< 10	< 10	–	–	–	slightly decrease in platelet number	significant decrease in the platelet number	lower platelet toxicity	highly selective and potent killing effects for senescent cells	without significant killing effect for the normal early-passage BJ cells
